Data: ChEMBL document CHEMBL3784965, “Discovery of (R)-6-(1-(8-Fluoro-6-(1-methyl-1H-pyrazol-4-yl)-[1,2,4]triazolo[4,3-a]pyridin-3-yl)ethyl)-3-(2-methoxyethoxy)-1,6-naphthyridin-5(6H)-one (AMG 337), a Potent and Selective Inhibitor of MET with High Unbound Target Coverage and Robust In Vivo Antitumor Activity” (J Med Chem, 2016)

What was measured:
[1] = Volume of distribution at steady state in Sprague-Dawley rat; assay type: ADME, organism-based; settings: in vivo, read-out: Vdss
[2] = Clearance in Sprague-Dawley rat at 0.25 mg/kg, iv; assay type: ADME, organism-based; settings: in vivo
[3] = system: Mus musculus; assay: Toxicity in CD1 mouse xenografted with mouse NIH-3T3/TPR-Met cells assessed as effect on body weight at 0.1 to 10 mg/kg, qd administered as oral gavage over 22 days; assay type: organism-based; settings: in vivo, 528 h
[4] = system: Mus musculus; assay: In vivo inhibition of HGF-induced phosphorylation of MET in Balb/c mouse liver assessed as phosphorylated cMET level at 10 mg/kg administered via oral gavage followed by HGF injection 12 hrs post dose by electrochemiluminescence immunoassay relative to control; assay type: functional; parameters: scale not given: the % may be the effect or the level left
[5] = AUC(0 to infinity) in Beagle dog at 10 mg/kg,po; assay type: ADME, organism-based, Canis lupus familiaris; parameters: dose 10 mg/kg, route oral, time infinity; settings: in vivo
[6] = Half life in iv dosed Beagle dog; assay type: ADME, organism-based, Canis lupus familiaris; settings: in vivo
[7] = Clearance in Beagle dog at 0.713 mg/kg, iv; assay type: ADME, organism-based, Canis lupus familiaris; settings: in vivo
[8] = species: Canis familiaris; assay: Unbound clearance in Beagle dog at 5 ug/ml by equilibrium dialysis method; assay type: ADME, organism-based, Canis lupus familiaris; settings: in vivo
[9] = Fraction unbound in human plasma at 5 ug/ml by equilibrium dialysis method; assay type: ADME, cell-free
[10] = (§1) Antitumor activity against mouse NIH-3T3/TPR-Met cells xenografted in CD1 mouse assessed as tumor growth inhibition administered as oral gavage, qd over 22 days; assay type: functional; settings: NIH3T3, po, 528 h
[11] = system: Mus musculus; assay: as §1; assay type: functional
[12] = Fraction unbound in Sprague-Dawley rat plasma at 5 ug/ml by equilibrium dialysis method; assay type: ADME, cell-free
[13] = system: Mus musculus; assay: In vivo inhibition of HGF-induced phosphorylation of MET in Balb/c mouse liver assessed as phosphorylated cMET level at 10 mg/kg administered via oral gavage followed by HGF injection 6 hrs post dose by electrochemiluminescence immunoassay relative to control; assay type: functional; parameters: scale not given: the % may be the effect or the level left
[14] = Half life in Sprague-Dawley rat; assay type: ADME, organism-based; settings: in vivo
[15] = AUC(0 to infinity) in Beagle dog at 30 mg/kg, po; assay type: ADME, organism-based, Canis lupus familiaris; parameters: dose 30 mg/kg, time infinity, route oral; settings: in vivo
[16] = Intrinsic clearance in mouse liver microsomes; assay type: ADME; settings: read-out: CLH
[17] = system: Mus musculus; assay: In vivo inhibition of HGF-induced phosphorylation of MET in Balb/c mouse liver assessed as phosphorylated cMET level at 10 mg/kg administered via oral gavage followed by HGF injection 3 hrs post dose by electrochemiluminescence immunoassay relative to control; assay type: functional; parameters: scale not given: the % may be the effect or the level left
[18] = Intrinsic clearance in human liver microsomes; assay type: ADME; settings: read-out: CLH
[19] = system: Mus musculus; assay: In vivo inhibition of HGF-induced phosphorylation of MET in Balb/c mouse liver assessed as phosphorylated cMET level at 10 mg/kg administered via oral gavage followed by HGF injection 9 hrs post dose by electrochemiluminescence immunoassay relative to control; assay type: functional; parameters: scale not given: the % may be the effect or the level left
[20] = species: Rattus norvegicus; assay: Unbound clearance in Sprague-Dawley rat at 5 ug/ml by equilibrium dialysis method; assay type: ADME, organism-based; settings: in vivo
[21] = Intrinsic clearance in rat liver microsomes; assay type: ADME; settings: read-out: CLH
[22] = Volume of distribution at steady state in iv dosed Beagle dog; assay type: ADME, organism-based, Canis lupus familiaris; settings: in vivo, read-out: Vdss
[23] = Oral bioavailability in Beagle dog at 30 mg/kg; assay type: ADME, organism-based, Canis lupus familiaris; settings: in vivo
[24] = system: Mus musculus; assay: In vivo inhibition of HGF-induced phosphorylation of MET in Balb/c mouse liver assessed as phosphorylated cMET level at 10 mg/kg administered via oral gavage followed by HGF injection 24 hrs post dose by electrochemiluminescence immunoassay relative to control; assay type: functional; parameters: scale not given: the % may be the effect or the level left
[25] = Oral bioavailability in Sprague-Dawley rat at 2 mg/kg; assay type: ADME, organism-based; settings: in vivo
[26] = Oral bioavailability in Beagle dog at 10 mg/kg; assay type: ADME, organism-based, Canis lupus familiaris; settings: in vivo
[27] = Fraction unbound in mouse plasma at 5 ug/ml by equilibrium dialysis method; assay type: ADME, cell-free
[28] = system: Mus musculus; assay: In vivo inhibition of HGF-induced phosphorylation of MET in Balb/c mouse liver assessed as phosphorylated cMET level at 10 mg/kg administered via oral gavage followed by HGF injection 1 hr post dose by electrochemiluminescence immunoassay relative to control; assay type: functional; parameters: scale not given: the % may be the effect or the level left
[29] = target: T1, Cytochrome P450 3A4 (Homo sapiens, UniProt P08684); assay: Inhibition of CYP3A4 (unknown origin) in absence of NADPH; assay type: ADME; settings: human
[30] = target: T1, Cytochrome P450 3A4; assay: Inhibition of CYP3A4 (unknown origin) in presence of NADPH; assay type: ADME; settings: human
[31] = system: Plasma; assay: Unbound plasma concentration in mouse at 10 mg/kg, po measured at 9 hrs; assay type: ADME, organism-based; settings: in vivo

T1 sequence (P08684 whole entry): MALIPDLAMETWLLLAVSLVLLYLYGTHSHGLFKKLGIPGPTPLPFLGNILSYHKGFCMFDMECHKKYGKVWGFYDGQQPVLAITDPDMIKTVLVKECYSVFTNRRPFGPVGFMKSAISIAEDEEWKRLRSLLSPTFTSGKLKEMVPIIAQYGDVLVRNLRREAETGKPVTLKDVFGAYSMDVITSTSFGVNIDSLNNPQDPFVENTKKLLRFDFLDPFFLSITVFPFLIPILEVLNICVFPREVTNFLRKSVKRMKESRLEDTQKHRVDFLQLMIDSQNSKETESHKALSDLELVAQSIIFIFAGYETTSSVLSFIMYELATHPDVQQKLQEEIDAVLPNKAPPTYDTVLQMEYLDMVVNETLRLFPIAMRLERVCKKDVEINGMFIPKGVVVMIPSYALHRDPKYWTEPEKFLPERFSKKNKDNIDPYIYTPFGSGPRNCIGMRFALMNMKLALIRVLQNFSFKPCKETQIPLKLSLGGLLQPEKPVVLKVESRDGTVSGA

Row | SMILES | Vd [1] [L/kg] | clearance [2] [mL/min/kg] | Activity [4] [%] | fraction unbound at 5 ug/ml [9] | fraction unbound at 5 ug/ml [12] | Activity [13] [%] | half-life [14] [h] | microsomal CLint [16] [µL/min/mg] | Activity [17] [%] | microsomal CLint [18] [µL/min/mg] | Activity [19] [%] | CL free [20] [mL/min/kg] | microsomal CLint [21] [µL/min/mg] | Activity [24] [%] | bioavailability [25] [%] | fraction unbound at 5 ug/ml [27] | Activity [28] [%] | also measured
1 | COCCOc1cnc2ccn([C@H](C)c3nnc4c(F)cc(-c5cnn(C)c5)cn34)c(=O)c2c1 [AMG-337] | 0.9 | 4.5 | 92 | 0.419 | 0.174 | 98 | 3 | 8 | 98 | 9 | 92 | 26.7 | 6 | 51 | 30 | 0.366 | 101 | Activity [3]: Non-toxic; AUC(0-inf) [5]: 21000 ng·h/mL; half-life [6]: 5.9 h; clearance [7]: 3.83 mL/min/kg; CL free [8]: 7.67 mL/min/kg; ED50 [10]: 0.3 mg/kg; ED90 [10]: 0.8 mg/kg; Activity [11]: Dose-dependent effect; AUC(0-inf) [15]: 82600 ng·h/mL; Vd [22]: 1.1 L/kg; bioavailability [23]: 64%; bioavailability [26]: 49%
2 | Cc1cc(-c2cc(F)c3nnc([C@@H](C)n4ccc5ncccc5c4=O)n3c2)on1 | 0.4 | 6.33 | 40 | 0.32 | 0.196 | 98 | 0.8 | < 5 | 101 | 14 | 91 | 31.7 | 8 | 12 | 44 | 0.245 | 100 | TDI [29]: Not Active; TDI [30]: Not Active; Cp(f) [31]: 193 nM
